Molecules are shown by their SMILES.

The assay addresses T1, Human Factor XIIa (Homo sapiens, UniProt P00748).
T1 construct: purchased Enzyme Research Laboratories
T1 sequence (P00748 373-615 limits assumed): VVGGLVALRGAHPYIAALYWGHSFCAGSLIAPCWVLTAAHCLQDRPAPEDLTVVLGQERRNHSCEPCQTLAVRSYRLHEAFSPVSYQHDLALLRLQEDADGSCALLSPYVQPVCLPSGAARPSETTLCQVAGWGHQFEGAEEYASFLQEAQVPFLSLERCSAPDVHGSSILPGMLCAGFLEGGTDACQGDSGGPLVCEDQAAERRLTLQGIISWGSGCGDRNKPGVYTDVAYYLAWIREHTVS
Kind of assay: Factor XIIa inhibitory activity in vitro (fluorogenic substrate H-DPro-Phe-Arg-AFC). In kind it is biochemical. To be noted: 25° C., class symbols, read-out: Human FXIIa IC50. As for the experimental part: Determination of the % Inhibition for FXIIa
Human Factor XIIa (Enzyme Research Laboratories) was incubated at 25° C. with the fluorogenic substrate H-DPro-Phe-Arg-AFC and various concentrations of the test compound. Residual enzyme activity (initial rate of reaction) was determined by measuring the change in […] at 410 nm and the IC50 value for the test compound was determined.
For the compound `CC(C)(NC(=O)[C@H](N)CCc1ccccc1)C(=O)NCc1ccc2c(N)nccc2c1` [Example 6.06], the concentration for half-maximal inhibition (IC50) – broadly, the midpoint of a concentration-inhibition curve – fell in the range of 0.28 to 1 µM.
For `CC(C)N[C@H](CCc1ccccc1)C(=O)N[C@@H](Cc1ccc(F)c(F)c1)C(=O)NCc1ccc2c(N)nccc2c1` [Example 12.12] the value was 3 to 10 µM.
Turning to `C[C@@H]1CCC[C@H](C)N1[C@H](C)C(=O)N[C@@H](Cc1ccc(F)c(F)c1)C(=O)NCc1ccc2c(N)nccc2c1` [Example 5.105], the IC50 is 0.28 to 1 µM.
With `CC(C)N[C@H](CCc1ccccc1)C(=O)N[C@@H](C)C(=O)NCc1ccc(CN)cc1` [Example 9.10], the concentration for half-maximal inhibition (IC50) is 3 to 10 µM.
The same measure for `C[C@@H]1CCC[C@H](C)N1CC(=O)N1CCC[C@H]1C(=O)NCc1ccc2c(N)nccc2c1` [Example 32.02]: 10 to 40 µM; for `Cc1nc2ccncc2cc1C(=O)N[C@@H](Cc1ccc(F)c(F)c1)C(=O)NCc1ccc2c(N)nccc2c1` [Example 0.26]: 10 to 40 µM; for `Nc1nccc2cc(CNC(=O)[C@H](Cc3ccc(F)c(F)c3)NC(=O)c3ccc(-n4ccnc4)nc3)ccc12` [Example 0.10]: 10 to 40 µM.
Take `Nc1nccc2cc(CNC(=O)[C@H](Cc3ccc(F)c(F)c3)NC(=O)c3cn[nH]c3)ccc12` [Example 0.65]: the IC50 was 10 to 40 µM.
On to `C[C@H](NC(=O)[C@@H](CCc1ccccc1)NCc1ccccc1)C(=O)NCc1ccc2[nH]cc(Cl)c2c1` [Example 9.25], for which the IC50 lay in the range of 1 to 3 µM.
With `Nc1nccc2cc(CNC(=O)[C@H](Cc3ccc(F)c(F)c3)NC(=O)Cc3ccsc3)ccc12` [Example 3.26], the 50% inhibitory concentration (IC50) was 10 to 40 µM.
Consider `CC[C@H](NC(=O)[C@H](N)CCc1ccccc1)C(=O)NCc1ccc2c(N)nccc2c1` [Example 6.05], for which the IC50 lay in the range of 1 to 3 µM.
For `Nc1nccc2cc(CNC(=O)[C@H](Cc3ccc(F)c(F)c3)NC(=O)CCn3cnc4ccccc43)ccc12` [Example 20.05] the value was 10 to 40 µM; for `COc1cnccc1C(=O)N[C@@H](Cc1ccc(F)c(F)c1)C(=O)NCc1ccc2c(N)nccc2c1` [Example 0.84], 10 to 40 µM; for `C[C@@H]1CCC[C@H](C)N1CC(=O)N[C@@H](CC1CCCCC1)C(=O)NCc1ccc2c(N)nccc2c1` [Example 3.16], 3 to 10 µM.
Regarding `Nc1nccc2cc(CNC(=O)[C@H](Cc3ccc(F)c(F)c3)NC(=O)CN3CCCC3=O)ccc12` [Example 3.37], the IC50 fell in the range of 10 to 40 µM.
Take `C[C@@H]1CCC[C@H](C)N1C(=O)N[C@H](CC(=O)NCc1ccc2c(N)nccc2c1)Cc1ccccc1` [Example 39.07]: the IC50 fell in the range of 10 to 40 µM.
As to `Nc1nccc2cc(CNC(=O)[C@H](Cc3ccc(F)c(F)c3)NC(=O)c3cccc(Cn4cccn4)c3)ccc12` [Example 0.68], the half-inhibitory concentration (IC50) lay within 10 to 40 µM.
As for `Cc1nc2ccccn2c1C(=O)N[C@@H](Cc1ccc(F)c(F)c1)C(=O)NCc1ccc2c(N)nccc2c1` [Example 0.53], the IC50 fell in the range of 10 to 40 µM.
On to `C[C@H](NC(=O)[C@@H](CCc1ccccc1)NS(C)(=O)=O)C(=O)NCc1ccc2[nH]cc(Cl)c2c1` [Example 9.16], for which the IC50 lay within 10 to 40 µM.
For `CC(C(=O)N[C@@H](Cc1ccc(F)c(F)c1)C(=O)NCc1ccc2c(N)nccc2c1)N1CCCC1` (stereo partly drawn) [Example 5.103], the IC50 was 1 to 3 µM.
For `Nc1nccc2cc(CNC(=O)[C@H](Cc3ccc(F)c(F)c3)NC(=O)COCc3ccccc3)ccc12` [Example 0.39], the IC50 lay within 10 to 40 µM.
The same measure for `CC(C)N1CCC[C@@H]1C(=O)N[C@@H](Cc1ccc(F)c(F)c1)C(=O)NCc1ccc2c(N)nccc2c1` [Example 44.01]: 0.28 to 1 µM.
For `C[C@@H]1CCC[C@H](C)N1CC(=O)N[C@@H](Cc1ccc(F)c(F)c1)C(=O)NCc1ccc2c(N)noc2c1` [Example 3.105, (2S)—N-[(3-amino-1,2-benzoxazol-6-yl)methyl]-3-(3,4-difluorophenyl)-2-{2-[(2R,6S)-2,6-dimethylpiperidin-1-yl]acetamido}propanamide], the IC50 is 10 to 40 µM.
For the compound `Nc1nccc2cc(CNC(=O)[C@H](Cc3ccc(F)c(F)c3)NC(=O)c3cnc4n(c3=O)CCS4)ccc12` [Example 0.37], the IC50 is 1 to 3 µM.

The values are drawn from patent US20220298138A1, “ENZYME INHIBITORS” (KALVISTA PHARMACEUTICALS LIMITED, priority 2019, published 2022).
